# Results from publication PMC10945555, “Improving Activity of New Arylurea Agents against Multidrug-Resistant and Biofilm-Producing Staphylococcus epidermidis” (ACS Medicinal Chemistry Letters, 2024).
# Like-named read-outs stand apart in the source and are kept apart here.
# Test system: clinical Staphylococcus epidermidis strains
# Test: Minimal bactericidal concentration (MBC), MBC/MIC
# Format: cell-based
# Conditions: for MBC: Staphylococcus epidermidis
# Protocol: 2.5 Evaluation of bacteriostatic/bactericidal properties […]
# determining MBC (Minimal Bactericidal Concentration) values. The study was conducted in accordance with the guidelines of the Clinical and Laboratory Standards Institute (CLSI).13 The MBC value was assumed to be the concentration of the compound inhibiting the growth of strains in 99.9%. Then, the value of the MBC/MIC ratio was calculated to assess its bactericidal or bacteriostatic activity. […]
smiles,measurement,setting,value
O=C(Nc1cccc(Cl)c1)NC1CCN(CCC(Oc2ccc(C(F)(F)F)cc2)c2cccs2)CC1 (stereo not drawn) [Compound 25],MBC,"81 clinical strains (Table S5), read-out: Average of MBC",29.2 µg/mL
same,MBC,"clinical strain 1 (Table S5), read-out: MBC",25 µg/mL
same,MBC,"clinical strain 2 (Table S5), read-out: MBC",25 µg/mL
same,MBC,"clinical strain 3 (Table S5), read-out: MBC",12.5 µg/mL
same,MBC,"clinical strain 4 (Table S5), read-out: MBC",25 µg/mL
same,MBC,"clinical strain 5 (Table S5), read-out: MBC",50 µg/mL
same,MBC,"clinical strain 6 (Table S5), read-out: MBC",25 µg/mL
same,MBC,"clinical strain 7 (Table S5), read-out: MBC",25 µg/mL
same,MBC,"clinical strain 8 (Table S5), read-out: MBC",12.5 µg/mL
same,MBC,"clinical strain 9 (Table S5), read-out: MBC",50 µg/mL
same,MBC,"clinical strain 10 (Table S5), read-out: MBC",50 µg/mL
same,MBC,"clinical strain 11 (Table S5), read-out: MBC",25 µg/mL
same,MBC,"clinical strain 12 (Table S5), read-out: MBC",25 µg/mL
same,MBC,"clinical strain 13 (Table S5), read-out: MBC",25 µg/mL
same,MBC,"clinical strain 14 (Table S5), read-out: MBC",25 µg/mL
same,MBC,"clinical strain 15 (Table S5), read-out: MBC",50 µg/mL
same,MBC,"clinical strain 16 (Table S5), read-out: MBC",25 µg/mL
same,MBC,"clinical strain 17 (Table S5), read-out: MBC",1.6 µg/mL
same,MBC,"clinical strain 18 (Table S5), read-out: MBC",50 µg/mL
same,MBC,"clinical strain 19 (Table S5), read-out: MBC",12.5 µg/mL
same,MBC,"clinical strain 20 (Table S5), read-out: MBC",25 µg/mL
same,MBC,"clinical strain 21 (Table S5), read-out: MBC",25 µg/mL
same,MBC,"clinical strain 22 (Table S5), read-out: MBC",12.5 µg/mL
same,MBC,"clinical strain 23 (Table S5), read-out: MBC",25 µg/mL
same,MBC,"clinical strain 24 (Table S5), read-out: MBC",25 µg/mL
same,MBC,"clinical strain 25 (Table S5), read-out: MBC",12.5 µg/mL
same,MBC,"clinical strain 26 (Table S5), read-out: MBC",50 µg/mL
same,MBC,"clinical strain 27 (Table S5), read-out: MBC",50 µg/mL
same,MBC,"clinical strain 28 (Table S5), read-out: MBC",12.5 µg/mL
same,MBC,"clinical strain 29 (Table S5), read-out: MBC",6.25 µg/mL
same,MBC,"clinical strain 30 (Table S5), read-out: MBC",12.5 µg/mL
same,MBC,"clinical strain 31 (Table S5), read-out: MBC",25 µg/mL
same,MBC,"clinical strain 32 (Table S5), read-out: MBC",25 µg/mL
same,MBC,"clinical strain 33 (Table S5), read-out: MBC",25 µg/mL
same,MBC,"clinical strain 34 (Table S5), read-out: MBC",25 µg/mL
same,MBC,"clinical strain 35 (Table S5), read-out: MBC",25 µg/mL
same,MBC,"clinical strain 36 (Table S5), read-out: MBC",25 µg/mL
same,MBC,"clinical strain 37 (Table S5), read-out: MBC",25 µg/mL
same,MBC,"clinical strain 38 (Table S5), read-out: MBC",25 µg/mL
same,MBC,"clinical strain 39 (Table S5), read-out: MBC",12.5 µg/mL
same,MBC,"clinical strain 40 (Table S5), read-out: MBC",12.5 µg/mL
same,MBC,"clinical strain 41 (Table S5), read-out: MBC",25 µg/mL
same,MBC,"clinical strain 42 (Table S5), read-out: MBC",12.5 µg/mL
same,MBC,"clinical strain 43 (Table S5), read-out: MBC",25 µg/mL
same,MBC,"clinical strain 44 (Table S5), read-out: MBC",25 µg/mL
same,MBC,"clinical strain 45 (Table S5), read-out: MBC",25 µg/mL
same,MBC,"clinical strain 46 (Table S5), read-out: MBC",12.5 µg/mL
same,MBC,"clinical strain 47 (Table S5), read-out: MBC",25 µg/mL
same,MBC,"clinical strain 48 (Table S5), read-out: MBC",25 µg/mL
same,MBC,"clinical strain 49 (Table S5), read-out: MBC",1.6 µg/mL
same,MBC,"clinical strain 50 (Table S5), read-out: MBC",50 µg/mL
same,MBC,"clinical strain 51 (Table S5), read-out: MBC",50 µg/mL
same,MBC,"clinical strain 52 (Table S5), read-out: MBC",50 µg/mL
same,MBC,"clinical strain 53 (Table S5), read-out: MBC",50 µg/mL
same,MBC,"clinical strain 54 (Table S5), read-out: MBC",12.5 µg/mL
same,MBC,"clinical strain 55 (Table S5), read-out: MBC",50 µg/mL
same,MBC,"clinical strain 56 (Table S5), read-out: MBC",25 µg/mL
same,MBC,"clinical strain 57 (Table S5), read-out: MBC",50 µg/mL
same,MBC,"clinical strain 58 (Table S5), read-out: MBC",12.5 µg/mL
same,MBC,"clinical strain 59 (Table S5), read-out: MBC",50 µg/mL
same,MBC,"clinical strain 60 (Table S5), read-out: MBC",50 µg/mL
same,MBC,"clinical strain 61 (Table S5), read-out: MBC",25 µg/mL
same,MBC,"clinical strain 62 (Table S5), read-out: MBC",25 µg/mL
same,MBC,"clinical strain 63 (Table S5), read-out: MBC",25 µg/mL
same,MBC,"clinical strain 64 (Table S5), read-out: MBC",50 µg/mL
same,MBC,"clinical strain 65 (Table S5), read-out: MBC",50 µg/mL
same,MBC,"clinical strain 66 (Table S5), read-out: MBC",25 µg/mL
same,MBC,"clinical strain 67 (Table S5), read-out: MBC",50 µg/mL
same,MBC,"clinical strain 68 (Table S5), read-out: MBC",50 µg/mL
same,MBC,"clinical strain 69 (Table S5), read-out: MBC",25 µg/mL
same,MBC,"clinical strain 70 (Table S5), read-out: MBC",50 µg/mL
same,MBC,"clinical strain 71 (Table S5), read-out: MBC",25 µg/mL
same,MBC,"clinical strain 72 (Table S5), read-out: MBC",50 µg/mL
same,MBC,"clinical strain 73 (Table S5), read-out: MBC",6.25 µg/mL
same,MBC,"clinical strain 74 (Table S5), read-out: MBC",50 µg/mL
same,MBC,"clinical strain 75 (Table S5), read-out: MBC",50 µg/mL
same,MBC,"clinical strain 76 (Table S5), read-out: MBC",25 µg/mL
same,MBC,"clinical strain 77 (Table S5), read-out: MBC",50 µg/mL
same,MBC,"clinical strain 78 (Table S5), read-out: MBC",25 µg/mL
same,MBC,"clinical strain 79 (Table S5), read-out: MBC",6.25 µg/mL
same,MBC,"clinical strain 80 (Table S5), read-out: MBC",50 µg/mL
same,MBC,"clinical strain 81 (Table S5), read-out: MBC",3.12 µg/mL
same,MBC,read-out: Mean MBC,29.2 µg/mL
same,MBC/MIC ratio,clinical S. epidermidis strains,16
same,MBC/MIC,clinical strain 1 (Table S5),16
same,MBC/MIC,clinical strain 2 (Table S5),16
same,MBC/MIC,clinical strain 3 (Table S5),16
same,MBC/MIC,clinical strain 4 (Table S5),16
same,MBC/MIC,clinical strain 5 (Table S5),16
same,MBC/MIC,clinical strain 6 (Table S5),16
same,MBC/MIC,clinical strain 7 (Table S5),16
same,MBC/MIC,clinical strain 8 (Table S5),16
same,MBC/MIC,clinical strain 9 (Table S5),16
same,MBC/MIC,clinical strain 10 (Table S5),16
same,MBC/MIC,clinical strain 11 (Table S5),16
same,MBC/MIC,clinical strain 12 (Table S5),16
same,MBC/MIC,clinical strain 13 (Table S5),16
same,MBC/MIC,clinical strain 14 (Table S5),16
same,MBC/MIC,clinical strain 15 (Table S5),16
same,MBC/MIC,clinical strain 16 (Table S5),16
same,MBC/MIC,clinical strain 17 (Table S5),16
same,MBC/MIC,clinical strain 18 (Table S5),16
same,MBC/MIC,clinical strain 19 (Table S5),16
same,MBC/MIC,clinical strain 20 (Table S5),16
same,MBC/MIC,clinical strain 21 (Table S5),16
same,MBC/MIC,clinical strain 22 (Table S5),16
same,MBC/MIC,clinical strain 23 (Table S5),16
same,MBC/MIC,clinical strain 24 (Table S5),16
same,MBC/MIC,clinical strain 25 (Table S5),16
same,MBC/MIC,clinical strain 26 (Table S5),16
same,MBC/MIC,clinical strain 27 (Table S5),16
same,MBC/MIC,clinical strain 28 (Table S5),16
same,MBC/MIC,clinical strain 29 (Table S5),16
same,MBC/MIC,clinical strain 30 (Table S5),16
same,MBC/MIC,clinical strain 31 (Table S5),16
same,MBC/MIC,clinical strain 32 (Table S5),16
same,MBC/MIC,clinical strain 33 (Table S5),16
same,MBC/MIC,clinical strain 34 (Table S5),16
same,MBC/MIC,clinical strain 35 (Table S5),16
same,MBC/MIC,clinical strain 36 (Table S5),16
same,MBC/MIC,clinical strain 37 (Table S5),16
same,MBC/MIC,clinical strain 38 (Table S5),16
same,MBC/MIC,clinical strain 39 (Table S5),16
same,MBC/MIC,clinical strain 40 (Table S5),16
same,MBC/MIC,clinical strain 41 (Table S5),16
same,MBC/MIC,clinical strain 42 (Table S5),16
same,MBC/MIC,clinical strain 43 (Table S5),16
same,MBC/MIC,clinical strain 44 (Table S5),16
same,MBC/MIC,clinical strain 45 (Table S5),16
same,MBC/MIC,clinical strain 46 (Table S5),16
same,MBC/MIC,clinical strain 47 (Table S5),16
same,MBC/MIC,clinical strain 48 (Table S5),16
same,MBC/MIC,clinical strain 49 (Table S5),16
same,MBC/MIC,clinical strain 50 (Table S5),16
same,MBC/MIC,clinical strain 51 (Table S5),16
same,MBC/MIC,clinical strain 52 (Table S5),16
same,MBC/MIC,clinical strain 53 (Table S5),16
same,MBC/MIC,clinical strain 54 (Table S5),16
same,MBC/MIC,clinical strain 55 (Table S5),16
same,MBC/MIC,clinical strain 56 (Table S5),16
same,MBC/MIC,clinical strain 57 (Table S5),16
same,MBC/MIC,clinical strain 58 (Table S5),16
same,MBC/MIC,clinical strain 59 (Table S5),16
same,MBC/MIC,clinical strain 60 (Table S5),16
same,MBC/MIC,clinical strain 61 (Table S5),16
same,MBC/MIC,clinical strain 62 (Table S5),16
same,MBC/MIC,clinical strain 63 (Table S5),16
same,MBC/MIC,clinical strain 64 (Table S5),16
same,MBC/MIC,clinical strain 65 (Table S5),16
same,MBC/MIC,clinical strain 66 (Table S5),16
same,MBC/MIC,clinical strain 67 (Table S5),16
same,MBC/MIC,clinical strain 68 (Table S5),16
same,MBC/MIC,clinical strain 69 (Table S5),16
same,MBC/MIC,clinical strain 70 (Table S5),16
same,MBC/MIC,clinical strain 71 (Table S5),16
same,MBC/MIC,clinical strain 72 (Table S5),16
same,MBC/MIC,clinical strain 73 (Table S5),16
same,MBC/MIC,clinical strain 74 (Table S5),16
same,MBC/MIC,clinical strain 75 (Table S5),16
same,MBC/MIC,clinical strain 76 (Table S5),16
same,MBC/MIC,clinical strain 77 (Table S5),16
same,MBC/MIC,clinical strain 78 (Table S5),16
same,MBC/MIC,clinical strain 79 (Table S5),16
same,MBC/MIC,clinical strain 80 (Table S5),16
same,MBC/MIC,clinical strain 81 (Table S5),16
